{"source": "patent US20250230171A1", "about": "(MOMA Therapeutics, Inc., priority 2023, published 2025)"}
{"target": "biotinylated Avi-POLθ[2-894] (Homo sapiens (Human), UniProt O75417)", "sequence (O75417 2-894)": "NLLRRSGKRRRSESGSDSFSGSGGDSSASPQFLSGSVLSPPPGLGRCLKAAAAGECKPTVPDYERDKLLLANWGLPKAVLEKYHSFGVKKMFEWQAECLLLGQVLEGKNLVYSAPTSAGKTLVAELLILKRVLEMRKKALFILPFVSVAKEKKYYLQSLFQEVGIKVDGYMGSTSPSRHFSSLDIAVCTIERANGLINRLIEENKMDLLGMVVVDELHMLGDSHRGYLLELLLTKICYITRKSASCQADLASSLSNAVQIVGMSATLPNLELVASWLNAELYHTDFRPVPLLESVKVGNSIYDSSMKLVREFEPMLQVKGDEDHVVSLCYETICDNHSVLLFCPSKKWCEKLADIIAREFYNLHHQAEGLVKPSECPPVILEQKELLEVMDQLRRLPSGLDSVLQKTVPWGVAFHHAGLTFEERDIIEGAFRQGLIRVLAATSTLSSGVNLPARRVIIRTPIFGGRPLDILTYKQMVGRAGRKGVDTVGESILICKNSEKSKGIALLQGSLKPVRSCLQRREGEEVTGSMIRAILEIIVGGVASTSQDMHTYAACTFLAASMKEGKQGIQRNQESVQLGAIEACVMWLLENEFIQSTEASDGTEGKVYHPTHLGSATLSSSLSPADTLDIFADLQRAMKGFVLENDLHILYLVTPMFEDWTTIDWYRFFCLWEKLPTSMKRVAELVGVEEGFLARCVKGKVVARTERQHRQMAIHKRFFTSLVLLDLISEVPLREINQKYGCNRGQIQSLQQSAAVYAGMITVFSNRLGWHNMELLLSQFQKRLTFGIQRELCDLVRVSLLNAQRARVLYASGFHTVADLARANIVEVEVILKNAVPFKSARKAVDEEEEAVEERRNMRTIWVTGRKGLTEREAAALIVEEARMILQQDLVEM", "test": "POLθ ATPase assay (ADP-Glo)", "details": "n=2; read-out: Biochemical ATPase ADPGlo IC50", "protocol": "In some embodiments, the ATPase assay a compound of the present disclosure is combined with biotinylated Avi-POLθ[2-894], a 50 nucleotide poly-thymine repeat single-stranded DNA, and ATP in buffer. In some embodiments, the mixture is incubated and ADP-Glo Reagent added, followed by a subsequent incubation. In some embodiments, a Kinase Detection Reagent may be added, followed by a third incubation. In some embodiments, the activity is measured via luminescence signal (e.g., measured with the EnVision multimode plate reader). POLθ-mediated ATP hydrolysis was measured using the ADP-Glo Kinase Assay (Promega Corporation, Madison, WI). Reactions were performed in white 384-well small-volume microplates (Greiner Bio-One, Frickenhausen, Germany) using a total volume of 15 μL. The ATPase reaction consisted of 1 nM biotinylated Avi-POLθ[2-894], 5 nM of a 50 nucleotide poly-thymine repeat single-stranded DNA (PolyT(50) ssDNA), and 100 μM ATP in 5 μL of assay buffer (50 mM Tris, pH 7.5, 80 mM KCl, 10 MgCl2, 1 mM DTT, 5% glycerol, 0.01% BSA, 0.01% Tween-20). Inhibition of POLΘATPase activity was determined by preparing 11-point serial dilutions of the test compounds in 100% DMSO, then transferring 30 nL of the compounds into the ATPase reaction using an Echo acoustic liquid handler (Beckman Coulter, Brea, CA). DMSO-treated wells containing either all of the reaction components (1 nM biotinylated Avi-POLθ[2-894], 5 nM PolyT(50) ssDNA, 100 μM ATP) or with assay buffer substituted for the biotinylated Avi-POLθ[2-894](0 nM biotinylated Avi-POLθ[2-894], 5 nM PolyT(50) ssDNA, 100 μM ATP) were used to define the maximum and minimum response in the assay. Following a one-hour incubation at ambient temperature, 5 μL of ADP-Glo Reagent was added to the ATPase reaction, and this mixture was allowed to incubate at ambient temperature for an additional hour. Lastly, 5 μL of Kinase Detection Reagent was added, followed by a third one-hour incubation at ambient temperature. […] Luminescence signal was measured using the EnVision multimode plate reader (Perkin Elmer. Waltham. MA). […] Non-linear regression analysis using the four-parameter logistic equation was conducted on the percent activity values of the compound dose-responses, yielding the AC50 value for each compound. Genedata Screener (Genedata. Basel, Switzerland) was used for the data analysis.", "units": {"IC50": "nM"}}
{"smiles": "COc1cnc(Cl)cc1-c1cc(C)ncc1C(=O)Nc1nc2c(s1)CN(C(=O)C1CCC(OC)C1)C2", "note": "(racemic) [Example 101, (Racemic)-2′-chloro-5′-methoxy-N-(5-(3-methoxycyclopentane-1-carbonyl)-5,6-dihydro-4H-pyrrolo[3,4-d]thiazol-2-yl)-6-methyl-[4,4′-bipyridine]-3-carboxamide]", "IC50": "1 to 15"}
{"smiles": "COc1cnc(Cl)cc1-c1cc(C)ncc1C(=O)Nc1nc2c(s1)CN(C(=O)C1CC(OC)(C(F)(F)F)C1)C2", "note": "(racemic) [Example 103, (Racemic)-2′-chloro-5′-methoxy-N-(5-(3-methoxy-3-(trifluoromethyl)cyclobutane-1-carbonyl)-5,6-dihydro-4H-pyrrolo[3,4-d]thiazol-2-yl)-6-methyl-[4,4′-bipyridine]-3-carboxamide]", "IC50": "15 to 50"}
{"smiles": "COc1cnc(Cl)cc1-c1cc(C)ncc1C(=O)Nc1nc2c(s1)CC(N1CCC(O)CC1)CC2", "note": "(racemic) [Example 109, (Racemic)-2′-chloro-N-(6-(4-hydroxypiperidin-1-yl)-4,5,6,7-tetrahydrobenzo[d]thiazol-2-yl)-5′-methoxy-6-methyl-[4,4′-bipyridine]-3-carboxamide]", "IC50": "150 to 900"}
{"smiles": "COc1cnc(Cl)cc1-c1cc(C)ncc1C(=O)Nc1nc2c(s1)CC(N1CCCCC1)CC2", "note": "(racemic) [Example 110]", "IC50": "≥ 900"}
{"smiles": "COc1cnc(Cl)cc1-c1cc(C)ncc1C(=O)Nc1nc2c(s1)CC(NC1CCC1)CC2", "note": "(racemic) [Example 134]", "IC50": "150 to 900"}
{"smiles": "COc1cnc(Cl)cc1-c1cc(C)ncc1C(=O)Nc1nc2c(s1)CN(C(=O)c1ccnn1C(F)F)C2", "note": "(racemic) [Example 137]", "IC50": "1 to 15"}
{"smiles": "COc1cnc(Cl)cc1-c1cc(C)ncc1C(=O)Nc1nc2c(s1)C[C@H](NC(=O)[C@H]1C[C@@H](O)C1)CC2", "note": "(racemic) [Example 144]", "IC50": "150 to 900"}
{"smiles": "COc1ccc(C#N)cc1-c1cc(C)ncc1C(=O)Nc1nc2c(s1)CN(C1CC1)C2", "note": "(racemic) [Example 165]", "IC50": "50 to 150"}
{"smiles": "COc1ccc(C#N)cc1-c1cc(C)ncc1C(=O)Nc1nc2c(s1)CN(C(=O)c1ccncc1)CC2", "note": "(racemic) [Example 213]", "IC50": "150 to 900"}
{"smiles": "COc1ccc(C#N)cc1-c1cc(C)ncc1C(=O)Nc1nc2c(s1)CN(S(=O)(=O)C1CCCOC1)C2", "note": "(racemic) [Example 233]", "IC50": "15 to 50"}
{"smiles": "COc1ccc(C#N)cc1-c1cc(C)ncc1C(=O)Nc1nc2c(s1)CN(C(=O)C1COC1)CC2", "note": "(single isomer, unassigned)", "IC50": "150 to 900"}
{"smiles": "COc1ccc(C#N)cc1-c1cc(C)ncc1C(=O)Nc1nc2c(s1)CN(C(=O)C1CCCC1)CC2", "note": "(single isomer, unassigned)", "IC50": "150 to 900"}
{"smiles": "COc1cnc(Cl)cc1-c1cc(C)ncc1C(=O)Nc1nc2c(s1)C[C@H](C(=O)NC1CCC1)CC2", "note": "(single isomer, unassigned) [Example 27, (R or S)-2-(2′-chloro-5′-methoxy-6-methyl-[4,4′-bipyridine]-3-carboxamido)-N-cyclobutyl-4,5,6,7-tetrahydrobenzo[d]thiazole-6-carboxamide]", "IC50": "15 to 50"}
{"smiles": "COc1cnc(Cl)cc1-c1cc(C)ncc1C(=O)Nc1nc2c(s1)C[C@@H](C(=O)NC1CCC1)CC2", "note": "(single isomer, unassigned) [Example 29, (S or R)-2-(2′-chloro-5′-methoxy-6-methyl-[4,4′-bipyridine]-3-carboxamido)-N-cyclobutyl-4,5,6,7-tetrahydrobenzo[d]thiazole-6-carboxamide]", "IC50": "150 to 900"}
{"smiles": "COc1cnc(Cl)cc1-c1cc(C)ncc1C(=O)Nc1nc2c(s1)CC(C(=O)NC1CC1)CC2", "note": "(single isomer, unassigned) [Example 154]", "IC50": "150 to 900"}
{"smiles": "COc1ccc(C#N)cc1-c1cc(C)ncc1C(=O)Nc1nc2c(s1)CN(C(=O)C1CC1(F)F)CC2", "note": "(single isomer, unassigned) [Example 210]", "IC50": "150 to 900"}
{"smiles": "COc1ccc(C#N)cc1-c1cc(C)ncc1C(=O)Nc1nc2c(s1)CN(C(=O)C1CCCCO1)CC2", "note": "(single isomer, unassigned) [Example 215]", "IC50": "≥ 900"}
